Assay [1] deals with T1, human TRPV1 (Homo sapiens (Human), UniProt Q8NER1). Description: Capsaicin Activation Assay (intracellular Ca2+, FLIPR). It is filed as cell-based. Particulars: recombinant HEK293 cells expressing hTRPV1, 50 nM capsaicin. The method in brief:
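Stably transfected HEK293 cells expressing human TRPV1 cDNA, plated the day before in poly-D-lysine plates. Compounds serially diluted from 10 mM DMSO stocks; intracellular Ca2+ fluorescence read on FLIPR at 1 to 5 second intervals.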

The target in assay [2] is T1, human TRPV1. Put plainly: Acid Activation Assay (pH 5.0, intracellular Ca2+, FLIPR). The class given is cell-based. Particulars: percentage of the maximal pH 5.0-induced response remaining; recombinant HEK293 hTRPV1 cells; maximum concentration tested 37.5 μM. The method in brief:
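HEK293 cells stably expressing recombinant hTRPV1, loaded with Calcium-4 dye 90-120 min at 25° C. Compounds added over a 12-point half-log range (top 37.5 μM), then pH 5.0 DPBS/MES challenge after 3 min; FLIPR peak fluorescence over baseline given as % of maximal pH 5.0 response.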

T1 sequence (Q8NER1 whole entry): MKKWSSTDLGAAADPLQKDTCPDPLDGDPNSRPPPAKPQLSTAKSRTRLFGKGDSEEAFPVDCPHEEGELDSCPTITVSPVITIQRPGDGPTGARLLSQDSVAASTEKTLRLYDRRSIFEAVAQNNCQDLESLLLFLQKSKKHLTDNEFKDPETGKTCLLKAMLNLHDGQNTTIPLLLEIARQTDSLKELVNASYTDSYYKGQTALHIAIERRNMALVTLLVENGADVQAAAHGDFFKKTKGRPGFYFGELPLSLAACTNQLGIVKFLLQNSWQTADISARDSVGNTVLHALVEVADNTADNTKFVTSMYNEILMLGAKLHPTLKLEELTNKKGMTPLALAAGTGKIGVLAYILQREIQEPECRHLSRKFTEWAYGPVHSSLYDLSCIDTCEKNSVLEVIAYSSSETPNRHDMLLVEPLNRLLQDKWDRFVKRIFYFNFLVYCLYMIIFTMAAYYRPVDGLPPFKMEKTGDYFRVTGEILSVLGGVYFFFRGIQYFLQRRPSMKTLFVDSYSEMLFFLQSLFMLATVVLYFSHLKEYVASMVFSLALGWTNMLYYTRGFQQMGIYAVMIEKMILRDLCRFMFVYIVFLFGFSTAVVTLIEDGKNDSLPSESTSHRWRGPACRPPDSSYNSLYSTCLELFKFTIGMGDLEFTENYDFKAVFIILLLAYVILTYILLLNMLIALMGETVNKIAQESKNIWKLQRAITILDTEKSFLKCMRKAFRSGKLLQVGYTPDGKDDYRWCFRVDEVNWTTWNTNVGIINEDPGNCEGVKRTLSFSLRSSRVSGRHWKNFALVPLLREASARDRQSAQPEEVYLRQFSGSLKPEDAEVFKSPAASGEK

What is called IC50 is the concentration at which inhibition is half-maximal. Turning to `Cn1c(=O)ccc2c(NC(=O)N[C@@H]3CCc4cc(C(C)(C)C)ccc43)cccc21` [Example 68, 1-[(1R)-5-tert-butyl-2,3-dihydro-1H-inden-1-yl]-3-(1-methyl-2-oxo-1,2-dihydroquinolin-5-yl)urea], the IC50 at human TRPV1 [1] came out at 20 nM. Also, on human TRPV1 [2], the “human TRPV1 H^+ (max % remain)” value is 34%.

Take `CN1C(=O)NCc2c(NC(=O)N[C@@H]3CCOc4cc(C(F)(F)F)ccc43)cccc21` [Example 160, 1-(1-methyl-2-oxo-1,2,3,4-tetrahydroquinazolin-5-yl)-3-[(4R)-7-(trifluoromethyl)-3,4-dihydro-2H-chromen-4-yl]urea]: the IC50 at human TRPV1 [1] was 42 nM. In addition, the “human TRPV1 H^+ (max % remain)” value on human TRPV1 [2] was 23%.

On to `CN1Cc2ccc(NC(=O)N[C@@H]3CC(CF)(CF)Oc4c3ccc(Cl)c4F)cc2NC1=O` [Example 192, 1-[(4R)-7-chloro-8-fluoro-2,2-bis(fluoromethyl)-3,4-dihydro-2H-chromen-4-yl]-3-(3-methyl-2-oxo-1,2,3,4-tetrahydroquinazolin-7-yl)urea], for which the IC50 on human TRPV1 [1] turned out to be 280 nM. Further, the “human TRPV1 H^+ (max % remain)” value on human TRPV1 [2] is on record as 53%.

In the case of `CCC1(CC)C[C@@H](NC(=O)Nc2cccc3c2ccc(=O)n3C)c2cc(F)ccc2O1` [Example 74, 1-[(4R)-2,2-diethyl-6-fluoro-3,4-dihydro-2H-chromen-4-yl]-3-(1-methyl-2-oxo-1,2-dihydroquinolin-5-yl)urea], the IC50 at human TRPV1 [1] amounted to 19 nM. In addition, on human TRPV1 [2], the “human TRPV1 H^+ (max % remain)” value stood at 28%.

With `CCC1(CC)C[C@@H](NC(=O)Nc2ccc3c(c2)NC(=O)N(CCO)C3)c2cccc(F)c2O1` [Example 44, 1-[(4R)-2,2-diethyl-8-fluoro-3,4-dihydro-2H-chromen-4-yl]-3-[3-(2-hydroxyethyl)-2-oxo-1,2,3,4-tetrahydroquinazolin-7-yl]urea], on human TRPV1 [1], the concentration for half-maximal inhibition (IC50) was 65 nM. For the same compound, at human TRPV1 [2], the “human TRPV1 H^+ (max % remain)” value is reported as 3%.

Turning to `CC1(C)C[C@@H](NC(=O)Nc2ccc3c(c2)NC(=O)N(CCO)C3)c2cc(F)ccc2O1` [Example 51, 1-[(4R)-6-fluoro-2,2-dimethyl-3,4-dihydro-2H-chromen-4-yl]-3-[3-(2-hydroxyethyl)-2-oxo-1,2,3,4-tetrahydroquinazolin-7-yl]urea], the IC50 on human TRPV1 [1] was found to be 330 nM. Also, the “human TRPV1 H^+ (max % remain)” value at human TRPV1 [2] worked out at 10%.

As for `O=C1CCc2ccc(NC(=O)N[C@@H]3CC(CF)(CF)Oc4ccccc43)cc2N1` [Example 215, 1-[(4R)-2,2-bis(fluoromethyl)-3,4-dihydro-2H-chromen-4-yl]-3-(2-oxo-1,2,3,4-tetrahydroquinolin-7-yl)urea], the IC50 on human TRPV1 [1] was 60 nM. Besides, at human TRPV1 [2], the “human TRPV1 H^+ (max % remain)” value was 49%.

With `CC1(C)C[C@@H](NC(=O)Nc2ccc3c(c2)NC(=O)CC3)c2cccc(C(F)(F)F)c2O1` [Example 218, 1-[(4R)-2,2-dimethyl-8-(trifluoromethyl)-3,4-dihydro-2H-chromen-4-yl]-3-(2-oxo-1,2,3,4-tetrahydroquinolin-7-yl)urea], at human TRPV1 [1], the IC50 turned out to be 3600 nM. Besides, the “human TRPV1 H^+ (max % remain)” value at human TRPV1 [2] is reported as 101%.

With `CN1C(=O)CCc2ccc(NC(=O)N[C@@H]3CC(CF)(CF)Oc4cc(C(F)(F)F)ccc43)cc21` [Example 263, 1-[(4R)-2,2-bis(fluoromethyl)-7-(trifluoromethyl)-3,4-dihydro-2H-chromen-4-yl]-3-(1-methyl-2-oxo-1,2,3,4-tetrahydroquinolin-7-yl)urea], at human TRPV1 [1], the IC50 was determined as 500 nM. In addition, at human TRPV1 [2], the “human TRPV1 H^+ (max % remain)” value was 51%.

As for `CC1(C)C[C@@H](NC(=O)Nc2ccc3c(c2)NC(=O)CC3)c2ccc(Cl)cc2O1` [Example 235, 1-[(4R)-7-chloro-2,2-dimethyl-3,4-dihydro-2H-chromen-4-yl]-3-(2-oxo-1,2,3,4-tetrahydroquinolin-7-yl)urea], on human TRPV1 [1], the 50% inhibitory concentration (IC50) was 1300 nM. Further, the “human TRPV1 H^+ (max % remain)” value at human TRPV1 [2] amounted to 29%.

As for `CN1C(=O)CCc2ccc(NC(=O)N[C@H]3CC(C)(C)Oc4ccc(F)cc43)cc21` [Example 287, 1-[(4S)-6-fluoro-2,2-dimethyl-3,4-dihydro-2H-chromen-4-yl]-3-(1-methyl-2-oxo-1,2,3,4-tetrahydroquinolin-7-yl)urea], at human TRPV1 [1], the IC50 came to 13000 nM. The “human TRPV1 H^+ (max % remain)” value at human TRPV1 [2] amounted to 92%.

Consider `CC1(C)C[C@@H](NC(=O)Nc2ccc3c(c2)NC(=O)CC3)c2ccc(F)c(Cl)c2O1` [Example 233, 1-[(4R)-8-chloro-7-fluoro-2,2-dimethyl-3,4-dihydro-2H-chromen-4-yl]-3-(2-oxo-1,2,3,4-tetrahydroquinolin-7-yl)urea], for which the IC50 at human TRPV1 [1] worked out at 350 nM. Moreover, the “human TRPV1 H^+ (max % remain)” value at human TRPV1 [2] was determined as 37%.

`O=C(Nc1ccc2c(c1)NC(=O)N(CCO)C2)N[C@@H]1CCOc2ccc(F)cc21` [Example 52, 1-[(4R)-6-fluoro-3,4-dihydro-2H-chromen-4-yl]-3-[3-(2-hydroxyethyl)-2-oxo-1,2,3,4-tetrahydroquinazolin-7-yl]urea]: the IC50 at human TRPV1 [1] turned out to be 950 nM. In addition, the “human TRPV1 H^+ (max % remain)” value on human TRPV1 [2] was 32%.

As to `CN1C(=O)CCc2ccc(NC(=O)N[C@@H]3C[C@@](C)(CF)Oc4cc(C(F)(F)F)ccc43)cc21` [Example 289, 1-[(2S,4R)-2-(fluoromethyl)-2-methyl-7-(trifluoromethyl)-3,4-dihydro-2H-chromen-4-yl]-3-(1-methyl-2-oxo-1,2,3,4-tetrahydroquinolin-7-yl)urea], at human TRPV1 [1], the concentration for half-maximal inhibition (IC50) amounted to 230 nM. Besides, the “human TRPV1 H^+ (max % remain)” value on human TRPV1 [2] came out at 68%.

In the case of `Cn1c(=O)ccc2c(NC(=O)N[C@@H]3CCOc4ccc(F)cc43)cccc21` [Example 82, 1-[(4R)-6-fluoro-3,4-dihydro-2H-chromen-4-yl]-3-(1-methyl-2-oxo-1,2-dihydroquinolin-5-yl)urea], at human TRPV1 [1], the half-maximal inhibitory concentration (IC50) is 250 nM. On human TRPV1 [2], the “human TRPV1 H^+ (max % remain)” value is reported as 56%.

Consider `Cn1c(=O)ccc2c(NC(=O)N[C@@H]3CCOc4cc(OC(F)(F)F)ccc43)cccc21` [Example 87, 1-(1-methyl-2-oxo-1,2-dihydroquinolin-5-yl)-3-[(4R)-7-(trifluoromethoxy)-3,4-dihydro-2H-chromen-4-yl]urea], for which the IC50 on human TRPV1 [1] worked out at 28 nM. In addition, the “human TRPV1 H^+ (max % remain)” value at human TRPV1 [2] is reported as 57%.

As to `CC1(C)C[C@H](NC(=O)Nc2ccc3c(c2)NC(=O)CC3)c2cc(F)ccc2O1` [Example 243, 1-[(4S)-6-fluoro-2,2-dimethyl-3,4-dihydro-2H-chromen-4-yl]-3-(2-oxo-1,2,3,4-tetrahydroquinolin-7-yl)urea], the IC50 at human TRPV1 [1] is 4900 nM. In addition, at human TRPV1 [2], the “human TRPV1 H^+ (max % remain)” value came to 45%.

As for `CN1C(=O)NCc2c(NC(=O)N[C@@H]3CC(CF)(CF)Oc4c(F)cc(F)cc43)cccc21` [Example 153, 1-[(4R)-6,8-difluoro-2,2-bis(fluoromethyl)-3,4-dihydro-2H-chromen-4-yl]-3-(1-methyl-2-oxo-1,2,3,4-tetrahydroquinazolin-5-yl)urea], at human TRPV1 [1], the half-inhibitory concentration (IC50) worked out at 170 nM. Besides, the “human TRPV1 H^+ (max % remain)” value at human TRPV1 [2] came out at 23%.

As to `Cn1c(=O)ccc2c(NC(=O)N[C@H]3CC(C)(C)Oc4ccc(F)cc43)cccc21` [Example 98, 1-[(4S)-6-fluoro-2,2-dimethyl-3,4-dihydro-2H-chromen-4-yl]-3-(1-methyl-2-oxo-1,2-dihydroquinolin-5-yl)urea], the IC50 on human TRPV1 [1] was found to be 3700 nM. Further, the “human TRPV1 H^+ (max % remain)” value at human TRPV1 [2] was 58%.

For `CN1Cc2ccc(NC(=O)N[C@@H]3CCOc4ccc(F)cc43)cc2NC1=O` [Example 199, 1-[(4R)-6-fluoro-3,4-dihydro-2H-chromen-4-yl]-3-(3-methyl-2-oxo-1,2,3,4-tetrahydroquinazolin-7-yl)urea], at human TRPV1 [1], the half-maximal inhibitory concentration (IC50) stood at 6700 nM. Moreover, the “human TRPV1 H^+ (max % remain)” value at human TRPV1 [2] came out at 58%.

Consider `O=C(Nc1ccc2c(c1)NC(=O)N(CCO)C2)N[C@@H]1CCOc2cc(C(F)(F)F)ccc21` [Example 54, 1-[3-(2-hydroxyethyl)-2-oxo-1,2,3,4-tetrahydroquinazolin-7-yl]-3-[(4R)-7-(trifluoromethyl)-3,4-dihydro-2H-chromen-4-yl]urea], for which, on human TRPV1 [1], the IC50 is 260 nM. Besides, on human TRPV1 [2], the “human TRPV1 H^+ (max % remain)” value turned out to be 1%.

Consider `CC1(C)C[C@@H](NC(=O)Nc2ccc3c(c2)NC(=O)N(CCO)C3)c2ccc(Br)cc2O1` [Example 63, 1-[(4R)-7-bromo-2,2-dimethyl-3,4-dihydro-2H-chromen-4-yl]-3-[3-(2-hydroxyethyl)-2-oxo-1,2,3,4-tetrahydroquinazolin-7-yl]urea], for which the 50% inhibitory concentration (IC50) at human TRPV1 [1] was 97 nM. Also, on human TRPV1 [2], the “human TRPV1 H^+ (max % remain)” value stood at 3%.

`CC1(C)C[C@@H](NC(=O)Nc2ccc3c(c2)NC(=O)C(N2CCCOCC2)C3)c2ccc(F)cc2O1` (stereo partly drawn) [Example 303, 1-[(4R)-7-fluoro-2,2-dimethyl-3,4-dihydro-2H-chromen-4-yl]-3-[3-(1,4-oxazepan-4-yl)-2-oxo-1,2,3,4-tetrahydroquinolin-7-yl]urea]: the 50% inhibitory concentration (IC50) at human TRPV1 [1] stood at 610 nM. For the same compound, the “human TRPV1 H^+ (max % remain)” value at human TRPV1 [2] is given as 2%.

On to `CC1(C)C[C@@H](NC(=O)Nc2ccc3c(c2)NC(=O)N(CCO)C3)c2ccc(C(F)(F)F)cc2O1` [Example 48, 1-[(4R)-2,2-dimethyl-7-(trifluoromethyl)-3,4-dihydro-2H-chromen-4-yl]-3-[3-(2-hydroxyethyl)-2-oxo-1,2,3,4-tetrahydroquinazolin-7-yl]urea], for which, at human TRPV1 [1], the half-maximal inhibitory concentration (IC50) was found to be 21 nM. In addition, the “human TRPV1 H^+ (max % remain)” value on human TRPV1 [2] stood at 1%.

Regarding `CC1(C)C[C@@H](NC(=O)Nc2ccc3c(c2)NC(=O)N(CCO)C3)c2cccc(F)c2O1` [Example 42, 1-[(4R)-8-fluoro-2,2-dimethyl-3,4-dihydro-2H-chromen-4-yl]-3-[3-(2-hydroxyethyl)-2-oxo-1,2,3,4-tetrahydroquinazolin-7-yl]urea], the half-maximal inhibitory concentration (IC50) on human TRPV1 [1] worked out at 510 nM. Also, the “human TRPV1 H^+ (max % remain)” value at human TRPV1 [2] was 8%.

The values are drawn from patent US8969325B2, “TRPV1 antagonists” (AbbVie Inc., priority 2011, dated 2015).
